Assay results from patent US6375942B1, “Skin healing ointment” (priority 1999, dated 2002).

Tested on: severe persistent rash caused by poison ivy
Assay: Case 1: ointment test on sufferer
Format: in vivo, Human
Details: adult; prescribed by dermatologist
Description: They then sought out other sufferers on whom to test their ointment. The results follow:
Case 1: adult suffering from severe persistent rash caused by poison ivy. […] Application of ointment only once per day completely healed subject in 2½ days.

CCCCC(=O)O[C@]1(C(=O)CO)[C@@H](C)C[C@H]2[C@@H]3CCC4=CC(=O)C=C[C@]4(C)[C@@]3(F)[C@@H](O)C[C@@]21C [valisone]
outcome of prescribed treatment: without success
